From article PMC2709563 (Nucleic Acids Research, 2009)

Target: Klenow fragment of DNA polymerase I (Escherichia coli, UniProt P00582)
Test: competitive fluorescence anisotropy displacement of dtC^OTP
Assay type: binding

Klenow fragment of DNA polymerase I, sequence (P00582 324-928 limits assumed): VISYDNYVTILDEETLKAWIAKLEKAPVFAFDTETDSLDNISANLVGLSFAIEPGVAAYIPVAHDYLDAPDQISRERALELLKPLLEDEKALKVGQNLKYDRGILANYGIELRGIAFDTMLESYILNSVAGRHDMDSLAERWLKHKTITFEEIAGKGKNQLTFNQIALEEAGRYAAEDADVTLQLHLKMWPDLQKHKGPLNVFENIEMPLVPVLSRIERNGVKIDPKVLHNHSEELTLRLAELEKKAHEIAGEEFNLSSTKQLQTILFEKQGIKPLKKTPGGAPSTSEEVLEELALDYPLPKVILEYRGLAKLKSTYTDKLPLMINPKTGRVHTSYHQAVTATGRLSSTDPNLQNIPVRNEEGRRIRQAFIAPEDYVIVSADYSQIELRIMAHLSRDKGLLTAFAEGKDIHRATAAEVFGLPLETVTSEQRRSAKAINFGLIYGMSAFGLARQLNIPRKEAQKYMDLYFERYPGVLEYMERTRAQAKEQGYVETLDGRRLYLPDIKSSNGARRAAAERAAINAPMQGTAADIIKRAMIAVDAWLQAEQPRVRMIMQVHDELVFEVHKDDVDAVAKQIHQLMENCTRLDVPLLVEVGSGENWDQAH

IC50: 3.4 µM
SMILES: Nc1ccn([C@H]2C[C@H](O)[C@@H](COP(=O)(O)OP(=O)(O)OP(=O)(O)O)O2)c(=O)n1 [dCTP]
